Source: article PMC2615640 (Chemical research in toxicology, 2008)
Entries after “also recorded” stand apart in the source; their conditions may differ. Marks after values point to notes of the source that are not given here.

Assays:
[1] = DPPH assay; format: biochemical; conditions: for DPPH % FRS ± SD: pure compounds at screening concentration of 100 μM
[2] = Crystal violet cytotoxicity assay; format: cell-based; conditions: mouse, Hepa1c1c7 murine hepatoma cells
[3] = tested on: NAD(P)H:quinone oxidoreductase 1 (NQO1); assay: In vitro NQO1 induction assay in Hepa-1c1c7 cells; conditions: Hepa1c1c7 cells; for NQO1 assay CD ± SD (concentration required for two-fold induction of NQO1): pure compounds, 48 h
[4] = tested on: NAD(P)H:quinone oxidoreductase 1 (NQO1); conditions: cited from earlier work
[5] = tested on: antioxidant response element (ARE); assay: ARE-luciferase activity assay in HepG2-ARE-C8 cells; format: cell-based; conditions: 24 h treatment
[6] = LC-MS-MS analysis of GSH conjugates; conditions: 1 mM GSH, pH 8.0, 1 h, room temperature
[7] = dry state, 24 h at room temperature, from 98.6% freshly isolated; cited from earlier work
[8] = p.o. dose 500 mg/kg, rats; cited from earlier work

Structure (SMILES) | DPPH % FRS ± SD [1] [%] | NQO1 inducing activity (in words) [3] | NQO1 assay CD ± SD (concentration required for two-fold induction of NQO1) [3] | further results
CCC/C=C1\OC(=O)c2ccccc21 [Compound 2, Z-butylidenephthalide] | < 50 | did not induce NQO1 activity | > 20 µM | IC50 at 48 h [2]: > 20 µM
CCC/C=C1\OC(=O)C2=CC3CCC21[C@]1(OC(=O)c2ccccc21)[C@@H]3CCC (stereo partly shown) [Compound 4, ansaspirolide] | < 50 | potent inducing properties | 0.9 ± 0.1 µM | CI (Chemopreventive Index: IC50/CD) [3]: 3
COc1cc(/C=C/C(=O)OCC(O)C(OC)c2ccc(O)c(OC)c2)ccc1O (stereo not shown) [Compound 6, angeliferulate] |  | respectable NQO1 inducing activities; also recorded: high NQO1 inducing properties | 7.5 ± 0.2 µM | 
COc1cc(/C=C/C(=O)OCCc2ccc(O)cc2)ccc1O [Compound 7, p-hydroxyphenethyl trans-ferulate] | 65 ± 1 | respectable NQO1 inducing activities; also recorded: high NQO1 inducing properties | 2.4 ± 0.3 ^f μM | radical scavenging activity (in words) ([1]; DPPH): moderate radical scavenging activity
C[S+]([O-])CCCCN=C=S (stereo not shown) [sulforaphane] |  |  |  | CI (chemopreventive index) [4]: 26
CCC/C=C1\OC(=O)C23C=CCCC12C1(OC(=O)c2ccccc21)C3CCC (stereo not shown) [Compound 5, sinaspirolide] | < 50 | did not show any NQO1 inducing activity | > 20 µM | 
CCC/C=C1\OC(=O)C2=C1CCC=C2 [Compound 1, Z-ligustilide] | < 50 | respectable NQO1 inducing activities |  | IC50 at 48 h [2]: 71.2 ± 4.1 µM; ARE-luciferase reporter activity [5]: increased ARE-luciferase reporter activity in a dose-dependent manner; also recorded: induced ARE reporter luciferase activity in a dose-dependent manner; covalent modification of GSH / GSH conjugate formation [6]: covalently modified GSH; also recorded: formed GSH conjugates; purity (GC-MS) after degradation [7]: 58.1%; GSH conjugate in plasma [8]: a GSH conjugate with monooxygenated ligustilide (mass 206) could be detected in the plasma
CCC/C=C1\OC(=O)C2=C1CC[C@@H](O)[C@@H]2O [Compound 3, senkyunolide I] | < 50 | weak NQO1 inducing properties | 17.9 ± 0.6 µM | 
